Reference: the kinase profiling compilation of Christmann-Franck et al. (2016)

Tests used:
Conditions in all cases: compound 10.0 µM
CAMKK1 (human) = CAMKK1 (human) (UniProt Q8N5S9)
FYN (human) = FYN (human) (UniProt P06241)
PIM3 (human) = PIM3 (human) (UniProt Q86V86)
RPS6KA3 KD1 (human) = RPS6KA3 KD1 (human) (UniProt P51812)
[1] = tested on: ABL1 (human), P00519 [E255K]
ABL2 (human) = ABL2 (human) (UniProt P42684)
AKT2 (human) = AKT2 (human) (UniProt P31751)
AURKB (human) = AURKB (human) (UniProt Q96GD4)
CDK8 (human) = CDK8 (human) (UniProt P49336)
CLK2 (human) = CLK2 (human) (UniProt P49760)
EGFR (human) = EGFR (human) (UniProt P00533)
[2] = tested on: EGFR (human), P00533 [747-751 del / S ins]
[3] = tested on: EGFR (human), P00533 [752-759 del]
[4] = tested on: EGFR (human), P00533 [G719C]
[5] = tested on: EGFR (human), P00533 [G719S]
[6] = tested on: EGFR (human), P00533 [L858R]
[7] = tested on: EGFR (human), P00533 [L861Q]
[8] = tested on: EGFR (human), P00533 [P753S; 747-752 del]
[9] = tested on: EGFR (human), P00533 [T790M/L858R]
[10] = tested on: EGFR (human), P00533 [T790M]
[11] = tested on: FLT3 (human), P36888 [D835Y]
HIPK2 (human) = HIPK2 (human) (UniProt Q9H2X6)
[12] = tested on: KIT (human), P10721 [D816V]
NEK1 (human) = NEK1 (human) (UniProt Q96PY6)
NTRK3 (human) = NTRK3 (human) (UniProt Q16288)
PAK2 (human) = PAK2 (human) (UniProt Q13177)
PIK3CA (human) = PIK3CA (human) (UniProt P42336)
[13] = tested on: PIK3CA (human), P42336 [C420R]
[14] = tested on: PIK3CA (human), P42336 [E542K]
[15] = tested on: PIK3CA (human), P42336 [E545A]
[16] = tested on: PIK3CA (human), P42336 [E545K]
[17] = tested on: PIK3CA (human), P42336 [H1047L]
[18] = tested on: PIK3CA (human), P42336 [H1047Y]
[19] = tested on: PIK3CA (human), P42336 [I800L]
[20] = tested on: PIK3CA (human), P42336 [M1043I]
[21] = tested on: PIK3CA (human), P42336 [Q546K]
PIK3CD (human) = PIK3CD (human) (UniProt O00329)
PIK3CG (human) = PIK3CG (human) (UniProt P48736)
RPS6KA5 KD2 (human) = RPS6KA5 KD2 (human) (UniProt O75582)
SRC (human) = SRC (human) (UniProt P12931)
TIE1 (human) = TIE1 (human) (UniProt P35590)

Chain of FYN (human) (P06241 whole entry, looked up): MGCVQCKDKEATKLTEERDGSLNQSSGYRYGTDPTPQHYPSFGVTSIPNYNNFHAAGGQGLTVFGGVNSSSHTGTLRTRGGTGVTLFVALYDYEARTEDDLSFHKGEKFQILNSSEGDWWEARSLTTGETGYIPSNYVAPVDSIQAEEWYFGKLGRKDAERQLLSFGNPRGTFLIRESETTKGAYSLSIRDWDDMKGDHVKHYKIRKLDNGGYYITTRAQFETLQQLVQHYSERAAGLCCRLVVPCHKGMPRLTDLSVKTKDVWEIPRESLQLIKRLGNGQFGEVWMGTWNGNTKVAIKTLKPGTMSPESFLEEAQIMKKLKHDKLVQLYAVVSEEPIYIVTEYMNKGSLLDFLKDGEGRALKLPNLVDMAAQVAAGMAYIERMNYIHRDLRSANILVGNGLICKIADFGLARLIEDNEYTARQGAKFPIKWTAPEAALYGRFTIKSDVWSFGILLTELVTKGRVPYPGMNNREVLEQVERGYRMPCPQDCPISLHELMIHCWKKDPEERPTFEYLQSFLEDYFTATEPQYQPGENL
Chain of CAMKK1 (human) (Q8N5S9 whole entry, looked up): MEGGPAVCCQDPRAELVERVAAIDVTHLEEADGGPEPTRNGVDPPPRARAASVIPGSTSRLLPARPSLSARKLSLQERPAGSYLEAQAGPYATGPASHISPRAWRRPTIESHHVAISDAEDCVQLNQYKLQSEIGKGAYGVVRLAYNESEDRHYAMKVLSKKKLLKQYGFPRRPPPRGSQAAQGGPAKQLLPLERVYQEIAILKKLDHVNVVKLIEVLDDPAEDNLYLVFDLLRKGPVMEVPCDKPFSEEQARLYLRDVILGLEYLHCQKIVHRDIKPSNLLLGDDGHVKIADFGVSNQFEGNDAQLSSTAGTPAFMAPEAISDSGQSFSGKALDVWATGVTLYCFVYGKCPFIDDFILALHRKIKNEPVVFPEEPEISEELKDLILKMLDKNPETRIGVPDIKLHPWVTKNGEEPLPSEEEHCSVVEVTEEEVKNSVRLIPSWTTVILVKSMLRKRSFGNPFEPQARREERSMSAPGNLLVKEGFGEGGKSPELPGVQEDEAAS
Chain of RPS6KA3 KD1 (human) (P51812 whole entry, looked up): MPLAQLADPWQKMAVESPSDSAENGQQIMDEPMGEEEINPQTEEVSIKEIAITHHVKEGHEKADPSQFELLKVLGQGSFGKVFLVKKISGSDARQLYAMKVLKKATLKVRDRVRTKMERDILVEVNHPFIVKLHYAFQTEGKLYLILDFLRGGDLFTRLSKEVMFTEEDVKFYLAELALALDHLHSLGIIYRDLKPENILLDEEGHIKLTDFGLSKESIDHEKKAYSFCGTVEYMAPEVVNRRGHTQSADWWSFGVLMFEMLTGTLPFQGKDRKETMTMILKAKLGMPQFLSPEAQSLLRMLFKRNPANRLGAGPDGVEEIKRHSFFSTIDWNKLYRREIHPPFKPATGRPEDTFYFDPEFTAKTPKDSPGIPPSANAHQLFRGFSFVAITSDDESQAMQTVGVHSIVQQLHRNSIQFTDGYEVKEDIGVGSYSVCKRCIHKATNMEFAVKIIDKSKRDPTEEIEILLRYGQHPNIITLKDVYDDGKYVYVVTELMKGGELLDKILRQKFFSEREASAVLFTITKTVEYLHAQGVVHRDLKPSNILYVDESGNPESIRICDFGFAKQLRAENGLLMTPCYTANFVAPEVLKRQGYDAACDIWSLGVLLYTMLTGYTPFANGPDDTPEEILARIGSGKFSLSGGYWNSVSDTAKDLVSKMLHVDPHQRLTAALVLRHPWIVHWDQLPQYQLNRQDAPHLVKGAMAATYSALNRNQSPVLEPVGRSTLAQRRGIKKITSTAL
Chain of PIK3CA (human), P42336 [E545K] (P42336 whole entry E545K, looked up): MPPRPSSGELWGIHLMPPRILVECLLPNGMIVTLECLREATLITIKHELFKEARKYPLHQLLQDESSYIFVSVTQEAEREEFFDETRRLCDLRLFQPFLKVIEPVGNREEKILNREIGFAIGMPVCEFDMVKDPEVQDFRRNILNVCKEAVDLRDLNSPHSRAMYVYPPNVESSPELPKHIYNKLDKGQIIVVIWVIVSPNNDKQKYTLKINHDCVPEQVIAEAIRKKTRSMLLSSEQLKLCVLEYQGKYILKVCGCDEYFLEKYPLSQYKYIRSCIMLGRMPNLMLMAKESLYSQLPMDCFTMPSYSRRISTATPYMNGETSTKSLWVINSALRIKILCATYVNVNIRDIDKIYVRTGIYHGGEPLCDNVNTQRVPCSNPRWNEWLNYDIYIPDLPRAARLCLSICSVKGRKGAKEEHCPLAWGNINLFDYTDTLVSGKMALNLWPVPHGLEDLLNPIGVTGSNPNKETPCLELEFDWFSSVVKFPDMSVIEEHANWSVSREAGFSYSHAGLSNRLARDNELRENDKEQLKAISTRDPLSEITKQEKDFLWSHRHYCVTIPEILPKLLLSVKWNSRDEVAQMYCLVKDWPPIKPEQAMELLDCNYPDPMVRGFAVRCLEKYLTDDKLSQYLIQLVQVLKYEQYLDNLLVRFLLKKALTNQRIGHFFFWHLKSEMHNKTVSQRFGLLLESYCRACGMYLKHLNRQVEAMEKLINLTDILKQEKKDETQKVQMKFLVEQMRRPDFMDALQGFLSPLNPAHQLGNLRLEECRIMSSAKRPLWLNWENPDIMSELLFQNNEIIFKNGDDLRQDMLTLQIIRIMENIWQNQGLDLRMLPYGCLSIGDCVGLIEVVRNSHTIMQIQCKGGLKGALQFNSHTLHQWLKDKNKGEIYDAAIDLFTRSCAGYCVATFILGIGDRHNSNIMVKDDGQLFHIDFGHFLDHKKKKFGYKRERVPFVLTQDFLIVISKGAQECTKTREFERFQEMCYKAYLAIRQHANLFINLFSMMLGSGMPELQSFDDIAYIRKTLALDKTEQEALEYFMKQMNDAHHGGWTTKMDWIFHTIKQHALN
Chain of NEK1 (human) (Q96PY6 whole entry, looked up): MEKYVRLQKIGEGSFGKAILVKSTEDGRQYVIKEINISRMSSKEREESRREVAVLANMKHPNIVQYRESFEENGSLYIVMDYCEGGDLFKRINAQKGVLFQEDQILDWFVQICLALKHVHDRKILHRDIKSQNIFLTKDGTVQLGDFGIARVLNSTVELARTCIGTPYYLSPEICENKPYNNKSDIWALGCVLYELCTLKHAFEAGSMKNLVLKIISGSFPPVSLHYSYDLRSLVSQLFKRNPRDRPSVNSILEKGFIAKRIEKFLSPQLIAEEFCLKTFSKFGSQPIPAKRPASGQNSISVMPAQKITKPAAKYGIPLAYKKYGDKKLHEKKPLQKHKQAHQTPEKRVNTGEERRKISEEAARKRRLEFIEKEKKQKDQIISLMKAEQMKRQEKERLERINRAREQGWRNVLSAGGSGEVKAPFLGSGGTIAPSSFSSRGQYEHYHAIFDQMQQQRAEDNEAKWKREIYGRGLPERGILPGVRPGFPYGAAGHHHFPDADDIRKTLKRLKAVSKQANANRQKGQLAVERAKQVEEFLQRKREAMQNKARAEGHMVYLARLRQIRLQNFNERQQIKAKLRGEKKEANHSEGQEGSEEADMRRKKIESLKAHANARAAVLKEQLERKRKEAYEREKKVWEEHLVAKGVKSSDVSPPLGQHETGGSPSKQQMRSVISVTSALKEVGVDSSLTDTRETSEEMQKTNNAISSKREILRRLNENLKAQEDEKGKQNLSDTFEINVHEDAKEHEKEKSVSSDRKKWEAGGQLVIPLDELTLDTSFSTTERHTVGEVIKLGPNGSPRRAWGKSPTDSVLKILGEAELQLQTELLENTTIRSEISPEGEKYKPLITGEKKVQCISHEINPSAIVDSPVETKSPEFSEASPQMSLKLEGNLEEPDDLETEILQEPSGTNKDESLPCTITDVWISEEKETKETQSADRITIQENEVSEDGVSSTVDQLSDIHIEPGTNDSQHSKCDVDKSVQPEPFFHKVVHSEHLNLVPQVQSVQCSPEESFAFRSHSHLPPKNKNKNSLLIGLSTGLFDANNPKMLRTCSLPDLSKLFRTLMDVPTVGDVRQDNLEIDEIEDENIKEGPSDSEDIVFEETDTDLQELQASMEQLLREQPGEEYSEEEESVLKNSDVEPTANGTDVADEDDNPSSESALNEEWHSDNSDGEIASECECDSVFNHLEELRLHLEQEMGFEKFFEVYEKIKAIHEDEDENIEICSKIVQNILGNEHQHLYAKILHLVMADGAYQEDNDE
Chain of PIK3CA (human), P42336 [C420R] (P42336 whole entry C420R, looked up): as the sequence (P42336 whole entry E545K, looked up) above, with C420R, K545E counted along it
Chain of AKT2 (human) (P31751 whole entry, looked up): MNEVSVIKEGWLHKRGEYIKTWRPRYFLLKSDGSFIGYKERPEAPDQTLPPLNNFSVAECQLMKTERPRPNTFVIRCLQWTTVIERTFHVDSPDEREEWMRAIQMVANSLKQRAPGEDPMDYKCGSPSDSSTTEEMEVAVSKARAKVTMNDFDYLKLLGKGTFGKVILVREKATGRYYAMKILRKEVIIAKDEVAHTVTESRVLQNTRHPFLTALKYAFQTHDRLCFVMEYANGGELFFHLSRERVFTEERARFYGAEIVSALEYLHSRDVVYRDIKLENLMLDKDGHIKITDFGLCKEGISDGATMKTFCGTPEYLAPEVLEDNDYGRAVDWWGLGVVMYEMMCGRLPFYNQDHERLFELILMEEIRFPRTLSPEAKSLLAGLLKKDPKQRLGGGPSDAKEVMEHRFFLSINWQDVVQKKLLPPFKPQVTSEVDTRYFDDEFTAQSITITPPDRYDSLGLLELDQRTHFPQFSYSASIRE
Chain of PIK3CA (human), P42336 [E542K] (P42336 whole entry E542K, looked up): as the sequence (P42336 whole entry E545K, looked up) above, with E542K, K545E counted along it
Chain of PIK3CA (human), P42336 [H1047Y] (P42336 whole entry H1047Y, looked up): as the sequence (P42336 whole entry E545K, looked up) above, with K545E, H1047Y counted along it

## CNC(=O)c1cc(Oc2ccc(NC(=O)Nc3ccc(Cl)c(C(F)(F)F)c3)cc2)ccn1
CAMKK1 (human)
  per cent of control: 100%
FYN (human)
  per cent of control: 35%
PIM3 (human)
  per cent of control: 100%
RPS6KA3 KD1 (human)
  per cent of control: 99%

## CNC(=O)c1cc(Oc2ccc(NC(=O)Nc3ccc(Cl)c(C(F)(F)F)c3)cc2)cc[n+]1[O-]
[1]
  per cent of control: 38%
ABL2 (human)
  per cent of control: 25%
AKT2 (human)
  per cent of control: 88%
AURKB (human)
  per cent of control: 0%
CAMKK1 (human)
  per cent of control: 79%
CDK8 (human)
  per cent of control: 0.6%
CLK2 (human)
  per cent of control: 80%
EGFR (human)
  per cent of control: 75%
[2]
  per cent of control: 76%
[3]
  per cent of control: 96%
[4]
  per cent of control: 80%
[5]
  per cent of control: 100%
[6]
  per cent of control: 88%
[7]
  per cent of control: 74%
[8]
  per cent of control: 77%
[9]
  per cent of control: 82%
[10]
  per cent of control: 100%
[11]
  per cent of control: 2.8%
FYN (human)
  per cent of control: 41%
HIPK2 (human)
  per cent of control: 20%
[12]
  per cent of control: 2.6%
NEK1 (human)
  per cent of control: 84%
NTRK3 (human)
  per cent of control: 0.35%
PAK2 (human)
  per cent of control: 93%
PIK3CA (human)
  per cent of control: 95%
[13]
  per cent of control: 40%
[14]
  per cent of control: 100%
[15]
  per cent of control: 100%
[16]
  per cent of control: 100%
[17]
  per cent of control: 98%
[18]
  per cent of control: 100%
[19]
  per cent of control: 100%
[20]
  per cent of control: 83%
[21]
  per cent of control: 100%
PIK3CD (human)
  per cent of control: 100%
PIK3CG (human)
  per cent of control: 82%
PIM3 (human)
  per cent of control: 100%
RPS6KA3 KD1 (human)
  per cent of control: 52%
RPS6KA5 KD2 (human)
  per cent of control: 81%
SRC (human)
  per cent of control: 53%
TIE1 (human)
  per cent of control: 0.3%
